PubChem BioAssay AID2060886 (Molecular Pharmacology Branch, DTP, NCI, 2025)
One block for each compound: values may come before it.

Test system: 653999-131-R-J2-PDC complex spheroids, growth inhibition
Test: Anticancer human tumor 653999-131-R-J2-PDC patient-derived lung adenocarcinoma cell line growth inhibition [RAS]
Conditions: for viability, T/C: stronger effect = lower value
Outline: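 Agents were tested in combination matrices in half-log decrements from a top concentration at or near clinical Cmax (10 microM if undetermined). Targets were multi-cell spheroids of tumour lines plus HUVEC and MSC stromal cells.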
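Note: spheroids exposed to the agents for seven days before the readout.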

IC50 (curve of first compound, second compound 0.0316 µM): 71.1 nM | IC50 (curve of first compound, second compound 0.1 µM): 36.8 nM | IC50 (curve of first compound, second compound 0.316 µM): 11.8 nM | IC50 (curve of first compound, second compound 1 µM): 3.37 nM | IC50 (curve of first compound, second compound 3.16 µM): < 3.16 nM | IC50 (curve of first compound, second compound 10 µM): < 3.16 nM
SMILES: Nc1ccn(C2OC(CO)C(O)C2(F)F)c(=O)n1 (stereo unspecified) + C#Cc1c(F)ccc2cc(O)cc(-c3ncc4c(N5CC6CCC(C5)N6)nc(OCC56CCCN5CC(F)C6)nc4c3F)c12
viability, T/C (second compound 0.0316 µM, first compound 0.00316 µM): 98.5% | viability, T/C (second compound 0.0316 µM, first compound 0.01 µM): 74.4% | viability, T/C (second compound 0.0316 µM, first compound 0.0316 µM): 58.3% | viability, T/C (second compound 0.0316 µM, first compound 0.1 µM): 48.5% | viability, T/C (second compound 0.0316 µM, first compound 0.316 µM): 36.6% | viability, T/C (second compound 0.0316 µM, first compound 1 µM): 32.4% | viability, T/C (second compound 0.1 µM, first compound 0.00316 µM): 96.9% | viability, T/C (second compound 0.1 µM, first compound 0.01 µM): 59.8% | viability, T/C (second compound 0.1 µM, first compound 0.0316 µM): 56.4% | viability, T/C (second compound 0.1 µM, first compound 0.1 µM): 46% | viability, T/C (second compound 0.1 µM, first compound 0.316 µM): 34.6% | viability, T/C (second compound 0.1 µM, first compound 1 µM): 31.4% | viability, T/C (second compound 0.316 µM, first compound 0.00316 µM): 58.1% | viability, T/C (second compound 0.316 µM, first compound 0.01 µM): 52.4% | viability, T/C (second compound 0.316 µM, first compound 0.0316 µM): 39.2% | viability, T/C (second compound 0.316 µM, first compound 0.1 µM): 32.1% | viability, T/C (second compound 0.316 µM, first compound 0.316 µM): 27.6% | viability, T/C (second compound 0.316 µM, first compound 1 µM): 26.5% | viability, T/C (second compound 1 µM, first compound 0.00316 µM): 50.5% | viability, T/C (second compound 1 µM, first compound 0.01 µM): 43% | viability, T/C (second compound 1 µM, first compound 0.0316 µM): 29.8% | viability, T/C (second compound 1 µM, first compound 0.1 µM): 20.9% | viability, T/C (second compound 1 µM, first compound 0.316 µM): 19.9% | viability, T/C (second compound 1 µM, first compound 1 µM): 18.9% | viability, T/C (second compound 3.16 µM, first compound 0.00316 µM): 35.4% | viability, T/C (second compound 3.16 µM, first compound 0.01 µM): 28.4% | viability, T/C (second compound 3.16 µM, first compound 0.0316 µM): 19.1% | viability, T/C (second compound 3.16 µM, first compound 0.1 µM): 14.9% | viability, T/C (second compound 3.16 µM, first compound 0.316 µM): 14.6% | viability, T/C (second compound 3.16 µM, first compound 1 µM): 14.5% | viability, T/C (second compound 10 µM, first compound 0.00316 µM): 33.6% | viability, T/C (second compound 10 µM, first compound 0.01 µM): 13.5% | viability, T/C (second compound 10 µM, first compound 0.0316 µM): 21.2% | viability, T/C (second compound 10 µM, first compound 0.1 µM): 13.9% | viability, T/C (second compound 10 µM, first compound 0.316 µM): 12.7% | viability, T/C (second compound 10 µM, first compound 1 µM): 10.1%

IC50 (compound alone, run of 09/09/2024): > 1000 nM | IC50 (curve of compound): > 1000 nM
SMILES: C=CC(=O)N1CCN(c2nc(OCC3CCCN3C)nc3c(F)c(-c4nc(N)cc(C)c4C(F)(F)F)c(Cl)cc23)C(C)C1 (stereo unspecified)
viability, T/C (compound 0.0316 µM): 107% [middle of 12 runs] | viability, T/C (compound 0.316 µM): 107% [middle of 12 runs]
